Experimental findings from PubChem BioAssay AID1259411 (Chemical Carcinogenesis Research Information System (CCRIS), 2018) are described below.

The subject of this data set is rodent carcinogenicity bioassays, tumor incidence. The data set can be described thus: CCRIS carcinogenicity studies. An outline of the steps: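 NCI-built, expert-reviewed records of carcinogenicity and related test outcomes (mutagenicity, tumor promotion/inhibition) compiled from published and report sources, historical span 1985-2011, not updated.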

SMILES strings stand for the structures. Calls of active or inactive are those of the source. The rule behind the calls is not given here.

For `C1=CC2OC2C=C1` (stereo not given), the carcinogen call is, setting by setting: (Species: MOUSE, Strain/Sex: SWISS/FEMALE, Route: INTRAPERITONEAL, Dose: 0, 7.4, 18.6 UMOL ADMINISTERED AS 3 UNEQUAL DOSES (1/7, 2/7, AND 4/7 OF THE TOTAL DOSE) OVER A 2-WK PERIOD (STUDY DURATI, Dose: 0, 7.4, 18.6 UMOL ADMINISTERED AS 3 UNEQUAL DOSES (1/7, 2/7, AND 4/7 OF THE TOTAL DOSE) OVER A 2-WK PERIOD (STUDY DURATI) “inactive; negative”; (Species: MOUSE, Strain/Sex: SWISS/MALE, Route: INTRAPERITONEAL, Dose: 0, 7.4, 18.6 UMOL ADMINISTERED AS 3 UNEQUAL DOSES (1/7, 2/7, AND 4/7 OF THE TOTAL DOSE) OVER A 2-WK PERIOD (STUDY DURATI, Dose: 0, 7.4, 18.6 UMOL ADMINISTERED AS 3 UNEQUAL DOSES (1/7, 2/7, AND 4/7 OF THE TOTAL DOSE) OVER A 2-WK PERIOD (STUDY DURATI) “inactive; negative”.
With `C=C(C)CCl`, the carcinogen call reads like this: (Species: MOUSE, Strain/Sex: B6C3F1/FEMALE, Route: GAVAGE, Dose: 0, 100, 200 MG/KG IN CORN OIL 5 D/WK FOR 103 WK (STUDY DURATION: 2 YR), Dose: 0, 100, 200 MG/KG IN CORN OIL 5 D/WK FOR 103 WK (STUDY DURATION: 2 YR), Tumor Site: Type of Lesion: FORESTOMACH: EPITHELIAL HYPERPLASIA, SQUAMOUS CELL PAPILLOMA) “active; positive”; (Species: MOUSE, Strain/Sex: B6C3F1/FEMALE, Route: GAVAGE, Dose: 0, 100, 200 MG/KG IN CORN OIL 5 D/WK FOR 103 WK, Dose: 0, 100, 200 MG/KG IN CORN OIL 5 D/WK FOR 103 WK, Tumor Site: Type of Lesion: FORESTOMACH: SQUAMOUS CELL PAPILLOMA, SQUAMOUS CELL PAPILLOMA OR CARCINOMA) “active; positive”; (Species: MOUSE, Strain/Sex: B6C3F1/MALE, Route: GAVAGE, Dose: 0, 100, 200 MG/KG IN CORN OIL 5 D/WK FOR 103 WK (STUDY DURATION: 2 YR), Dose: 0, 100, 200 MG/KG IN CORN OIL 5 D/WK FOR 103 WK (STUDY DURATION: 2 YR), Tumor Site: Type of Lesion: FORESTOMACH: EPITHELIAL HYPERPLASIA, SQUAMOUS CELL PAPILLOMA, SQUAMOUS CELL CARCINOMA) “active; positive”; (Species: MOUSE, Strain/Sex: B6C3F1/MALE, Route: GAVAGE, Dose: 0, 100, 200 MG/KG IN CORN OIL 5 D/WK FOR 103 WK, Dose: 0, 100, 200 MG/KG IN CORN OIL 5 D/WK FOR 103 WK, Tumor Site: Type of Lesion: FORESTOMACH: SQUAMOUS CELL PAPILLOMA, SQUAMOUS CELL CARCINOMA) “active; positive”; (Species: MOUSE, Strain/Sex: BDF1/FEMALE, Route: INHALATION, Dose: 0, 50, 100, 200 PPM 6 HR/D 5 D/WK FOR 104 WK (STUDY DURATION: 104 WK), Dose: 0, 50, 100, 200 PPM 6 HR/D 5 D/WK FOR 104 WK (STUDY DURATION: 104 WK), Tumor Site: Type of Lesion: HARDERIAN GLAND: ADENOMA) “active; positive”; (Species: MOUSE, Strain/Sex: BDF1/MALE, Route: INHALATION, Dose: 0, 50, 100, 200 PPM 6 HR/D 5 D/WK FOR 104 WK (STUDY DURATION: 104 WK), Dose: 0, 50, 100, 200 PPM 6 HR/D 5 D/WK FOR 104 WK (STUDY DURATION: 104 WK)) “inactive; negative”. In addition, the carcinogen call (Species: RAT, Strain/Sex: F344/FEMALE, Route: GAVAGE, Dose: 0, 75, 150 MG/KG IN CORN OIL 5 D/WK FOR 103 WK (STUDY DURATION: 2 YR), Dose: 0, 75, 150 MG/KG IN CORN OIL 5 D/WK FOR 103 WK (STUDY DURATION: 2 YR), Tumor Site: Type of Lesion: FORESTOMACH: BASAL CELL HYPERPLASIA, SQUAMOUS CELL PAPILLOMA) is “active; positive”; the carcinogen call (Species: RAT, Strain/Sex: F344/FEMALE, Route: GAVAGE, Dose: 0, 75, 150 MG/KG IN CORN OIL 5 D/WK FOR 103 WK, Dose: 0, 75, 150 MG/KG IN CORN OIL 5 D/WK FOR 103 WK, Tumor Site: Type of Lesion: FORESTOMACH: PAPILLOMA) is “active; positive”; the carcinogen call (Species: RAT, Strain/Sex: F344/MALE, Route: GAVAGE, Dose: 0, 75, 150 MG/KG IN CORN OIL 5 D/WK FOR 103 WK (STUDY DURATION: 2 YR), Dose: 0, 75, 150 MG/KG IN CORN OIL 5 D/WK FOR 103 WK (STUDY DURATION: 2 YR), Tumor Site: Type of Lesion: FORESTOMACH: BASAL CELL OR EPITHELIAL HYPERPLASIA, SQUAMOUS CELL PAPILLOMA) is “active; positive”; the carcinogen call (Species: RAT, Strain/Sex: F344/MALE, Route: GAVAGE, Dose: 0, 75, 150 MG/KG IN CORN OIL 5 D/WK FOR 103 WK, Dose: 0, 75, 150 MG/KG IN CORN OIL 5 D/WK FOR 103 WK, Tumor Site: Type of Lesion: FORESTOMACH: PAPILLOMA) was “active; positive”.
For `CCN(CC)CC#CC(C)(C)OC(=O)C(O)(c1ccccc1)C1CCCCC1` (stereo not given), the carcinogen call runs as follows: (Species: MOUSE, Strain/Sex: B6C3F1/FEMALE, Route: ORAL, Dose: 0, 30, 100, 300 MG/KG/D IN DIET FOR 78 WK (STUDY DURATION: 78 WK), Dose: 0, 30, 100, 300 MG/KG/D IN DIET FOR 78 WK (STUDY DURATION: 78 WK)) “inactive; negative”; (Species: MOUSE, Strain/Sex: B6C3F1/MALE, Route: ORAL, Dose: 0, 30, 100, 300 MG/KG/D IN DIET FOR 78 WK (STUDY DURATION: 78 WK), Dose: 0, 30, 100, 300 MG/KG/D IN DIET FOR 78 WK (STUDY DURATION: 78 WK)) “inactive; negative”; (Species: RAT, Strain/Sex: F344/FEMALE, Route: ORAL, Dose: 0, 30, 100 MG/KG/D IN DIET FOR 2 YR (STUDY DURATION: 2 YR), Dose: 0, 30, 100 MG/KG/D IN DIET FOR 2 YR (STUDY DURATION: 2 YR)) “inactive; negative”; (Species: RAT, Strain/Sex: F344/MALE, Route: ORAL, Dose: 0, 10, 30, 100 MG/KG/D IN DIET FOR 2 YR (STUDY DURATION: 2 YR), Dose: 0, 10, 30, 100 MG/KG/D IN DIET FOR 2 YR (STUDY DURATION: 2 YR)) “inactive; negative”.
On to `C1CN1c1nc(N2CC2)nc(N2CC2)n1`, for which the carcinogen call (Species: MOUSE, Route: INTRAPERITONEAL, Tumor Site: Type of Lesion: OVARIES, LUNG, THYMUS GLAND, Tumor Site: Type of Lesion: OVARIES, LUNG, THYMUS GLAND) was “active; positive”.
For `ClCOCCl`, the carcinogen call by setting is: (Species: HUMAN, Route: INHALATION, Tumor Site: Type of Lesion: LUNG: OAT CELL CARCINOMA) “active; positive”; (Species: MOUSE, Strain/Sex: ICR/FEMALE, Route: DERMAL, Tumor Site: Type of Lesion: INTEGUMENTARY SYSTEM (SKIN): PAPILLOMA, SQUAMOUS CELL CARCINOMA) “active; positive”; (Species: MOUSE, Strain/Sex: ICR/MALE,FEMALE, Route: SUBCUTANEOUS, Dose: 12.5 µL/KG IN PEANUT OIL ONCE, Tumor Site: Type of Lesion: LUNG: ADENOMA) “active; positive”; (Species: MOUSE, Strain/Sex: ICR/MALE, Route: INHALATION, Dose: 0, 10, 100 PPB 6 HR/D, 5 D/WK FOR 6 MO (STUDY DURATION: 24 MO), Dose: 0, 10, 100 PPB 6 HR/D, 5 D/WK FOR 6 MO (STUDY DURATION: 24 MO), Tumor Site: Type of Lesion: LUNG: ADENOMA OR ADENOCARCINOMA) “active; positive”; (Species: MOUSE, Strain/Sex: STRAIN-A, Route: INHALATION, Dose: 0.005 MG/L 6 HR/D, 5 D/WK FOR A TOTAL OF 82 D OVER 27 WK, Tumor Site: Type of Lesion: LUNG: ADENOMA) “active; positive”; (Species: RAT, Strain/Sex: SPRAGUE-DAWLEY/FEMALE, Route: SUBCUTANEOUS, Dose: 3 MG IN 0.1 ML NUJOL 1/WK FOR 100 D THEN 1 MG 1/WK OR 3/MO FOR 200 D, Tumor Site: Type of Lesion: INJECTION SITE: FIBROSARCOMA) “active; positive”. Besides, the carcinogen call by setting is: (Species: RAT, Strain/Sex: SPRAGUE-DAWLEY/MALE, Route: INHALATION, Dose: 0, 1, 10, 100 PPB 6 HR/D, 5 D/WK FOR 6 MO (STUDY DURATION: 19-28 MO), Dose: 0, 1, 10, 100 PPB 6 HR/D, 5 D/WK FOR 6 MO (STUDY DURATION: 19-28 MO), Tumor Site: Type of Lesion: NASAL CAVITY: ESTHESIONEUROEPITHELIOMA) “active; positive”; (Species: RAT, Strain/Sex: SPRAGUE-DAWLEY, Route: INHALATION, Dose: 0.5 MG/M3 FOR 101 EXPOSURES, Tumor Site: Type of Lesion: LUNG: SQUAMOUS CELL CARCINOMA, NASAL CAVITY: ESTHESIONEUROEPITHELIOMA) “active; positive”.
